Measured values taken from patent US20190263796A1, “LIM KINASE INHIBITORS, PHARMACEUTICAL COMPOSITION AND METHOD OF USE IN LIMK-MEDIATED DISEASES” (CELLIPSE, priority 2016, published 2019).
pIC50: −log10 of the molar value. One block for each molecule: values may come before it.

Experiments:
[1] = test system: Phospho-Ser3-Cofilin/Total Cofilin; assay: Western blot cofilin phosphorylation, MOLM-13; assay type: cell-based; details: Homo sapiens, MOLM-13 cells
Procedure: MOLM-13 cell line was originally purchased from the Leibniz-Institut Deutsche Sammlung von Mikroorganismen und Zellkulturen GmbH (DSMZ). MOLM-13 cells are cultured in RPMI 1640 20% (v/v) FBS supplemented with 100 U/mL^−1 penicillin, 0.1 mg·mL^−1 streptomycin (PAN Biotech P06-07100). Cells were maintained at 37° C. with 5% CO2.
In a 6 wells plate (Falcon 353046), 2·10^6 cells in 1.5 mL medium are treated for 2 h with compounds. Cells are then collected and cell lysis is performed at 4° C. using RIPA buffer supplemented with protease inhibitors cocktail (Sigma-Aldrich P8340) and phosphatase inhibitors cocktail (Sigma-Aldrich P5726). Following centrifugation 30 min 15000 g 4° C., supernatants are mixed with Laemmli buffer and denaturation is performed by heating 5 min 95° C. 10 μL of samples are subjected to electrophoresis on 15% SDS-PAGE. After electro-transfer (Mini Transblot, Bio-Rad), the PVDF membrane (Merck-Millipore Immobilon P IPVH00010) is blocked with Tris Buffered Saline, pH 7.4 (TBS) with 0.1% Tween 20 and 5% BSA for 1 h RT under agitation. The membrane was rinsed 3 times 10 min at room temperature under agitation with TBS, 0.1% Tween-20 (TBST) and then 1 h at room temperature with anti-phospho-Ser3-cofilin (Cell Signaling Technology #3313, 1/1000 dilution) antibody or anti-cofilin (Cell Signaling Technology #3312, 1/1000 dilution) diluted in TBS, 0.1% Tween 20 and 1% BSA. The membrane is then rinsed 3 times 10 min at room temperature under agitation in TBST and incubated for 1 h with anti-rabbit secondary antibody, horseradish peroxidase conjugated (Jackson Immunoresearch #711-036-152) under agitation at room temperature. After three washes 10 min at room temperature in TBST, the detection of total or phosphorylated cofilin was performed using chemiluminescence kit ECL™ Plus (GE Healthcare RPN2132). For each concentration of compound, ratio between phosphorylated cofilin and total cofilin is determined. This ratio is then expressed as percentage of control ratio (i.e., ratio from DMSO treated cells). IC50 Phospho-Ser3-Cofilin/Total Cofilin is then determined.

P-MEK/Total MEK [2] = assay: Western blot MEK1 phosphorylation, Kasumi-1; assay type: cell-based; details: Kasumi-1 cells
Procedure: (§1) Cells were maintained at 37° C. with 5% CO2.
(§2) In a 6 wells plate (Falcon 353046), 2·10^6 cells in 1.5 mL medium are treated for 2 h with compounds. Cells are then collected and cell lysis is performed at 4° C. using RIPA buffer supplemented with protease inhibitors cocktail (Sigma-Aldrich P8340) and phosphatase inhibitors cocktail (Sigma-Aldrich P5726). Following centrifugation 30 min 15000 g 4° C., supernatants are mixed with Laemmli buffer and denaturation is performed by heating 5 min 95° C. 10 μL of samples are subjected to electrophoresis on 15% SDS-PAGE. After electro-transfer (Mini Transblot, Bio-Rad), the PVDF membrane (Merck-Millipore Immobilon P IPVH00010) is blocked with Tris Buffered Saline, pH 7.4 (TBS) with 0.1% Tween 20 and 5% BSA for 1 h at room temperature under agitation. The membrane was rinsed 3 times 10 min at room temperature under agitation with TBS, 0.1% Tween-20 (TBST) and then 1 h at room temperature with anti-phospho-Ser218/222-MEK1 (Merck-Millipore 07-461, 1/1000 dilution) antibody or anti-MEK1 (Merck-Millipore 07-641, 1/1000 dilution) diluted in TBS, 0.1% Tween 20 and 1% BSA. The membrane is then rinsed 3 times 10 min RT under agitation in TBST and incubated for 1 h with anti-rabbit secondary antibody, horseradish peroxidase conjugated (Jackson Immunoresearch #711-036-152) under agitation at room temperature. After three washes 10 min at room temperature in TBST, the detection of total or phosphorylated cofilin was performed using chemiluminescence kit ECL™ Plus (GE Healthcare RPN2132). For each concentration of compound, ratio between phosphorylated cofilin and total cofilin is determined. This ratio is then expressed as percentage of control ratio (i.e., ratio from DMSO treated cells). IC50 P-MEK/Total MEK is then determined.
(§3) Selectivity ratios are calculated by dividing the IC50 P-MEK/Total MEK value (μM) by the IC50 Phospho-Ser3-Cofilin/Total Cofilin value (μM).

P-MEK/Total MEK [3] = assay: Western blot MEK1 phosphorylation, THP-1; assay type: cell-based; details: for pIC50: Homo sapiens, read-out: IC50 P-MEK/Total MEK
Procedure: as §1, §2, §3

Aurora-A(h) = biological target: T1, Aurora-A(h) (Homo sapiens, UniProt O14965); assay: KinaseProfiler panel: Aurora-A(h); assay type: biochemical; details: residual activity, 5 μM inhibitor, Km ATP
T1 construct: purchased Merck-Millipore (KinaseProfiler panel service)
T1 sequence (O14965 whole entry): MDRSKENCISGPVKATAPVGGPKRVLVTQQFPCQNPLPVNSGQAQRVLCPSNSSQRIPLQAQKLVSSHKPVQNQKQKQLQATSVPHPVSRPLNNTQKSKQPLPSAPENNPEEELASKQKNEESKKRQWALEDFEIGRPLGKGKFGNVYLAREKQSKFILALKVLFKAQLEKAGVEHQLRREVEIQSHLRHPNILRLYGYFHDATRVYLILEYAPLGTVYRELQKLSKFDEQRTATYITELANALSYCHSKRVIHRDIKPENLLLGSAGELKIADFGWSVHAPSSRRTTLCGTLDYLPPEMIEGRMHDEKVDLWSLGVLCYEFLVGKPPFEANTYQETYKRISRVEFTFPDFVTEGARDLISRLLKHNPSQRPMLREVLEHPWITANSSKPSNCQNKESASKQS
Procedure: (§4) Kinase selectivity was performed on a panel of 58 recombinant protein kinases. The assays were performed in the presence of 5 μM inhibitor at the respective Km ATP for each kinase, using the KinaseProfiler panel service (Merck-Millipore). Residual activity measured in the presence of […] inhibitor is expressed as the percent of activity determined in the absence of inhibitor.

cKit(D816H)(h) = biological target: T2, cKit(D816H)(h) (Homo sapiens, UniProt P10721, D816H); assay: KinaseProfiler panel: cKit(D816H)(h); assay type: biochemical; details: residual activity, 5 μM inhibitor, Km ATP
T2 construct: purchased Merck-Millipore (KinaseProfiler panel service)
T2 sequence (P10721 26-976 D816H): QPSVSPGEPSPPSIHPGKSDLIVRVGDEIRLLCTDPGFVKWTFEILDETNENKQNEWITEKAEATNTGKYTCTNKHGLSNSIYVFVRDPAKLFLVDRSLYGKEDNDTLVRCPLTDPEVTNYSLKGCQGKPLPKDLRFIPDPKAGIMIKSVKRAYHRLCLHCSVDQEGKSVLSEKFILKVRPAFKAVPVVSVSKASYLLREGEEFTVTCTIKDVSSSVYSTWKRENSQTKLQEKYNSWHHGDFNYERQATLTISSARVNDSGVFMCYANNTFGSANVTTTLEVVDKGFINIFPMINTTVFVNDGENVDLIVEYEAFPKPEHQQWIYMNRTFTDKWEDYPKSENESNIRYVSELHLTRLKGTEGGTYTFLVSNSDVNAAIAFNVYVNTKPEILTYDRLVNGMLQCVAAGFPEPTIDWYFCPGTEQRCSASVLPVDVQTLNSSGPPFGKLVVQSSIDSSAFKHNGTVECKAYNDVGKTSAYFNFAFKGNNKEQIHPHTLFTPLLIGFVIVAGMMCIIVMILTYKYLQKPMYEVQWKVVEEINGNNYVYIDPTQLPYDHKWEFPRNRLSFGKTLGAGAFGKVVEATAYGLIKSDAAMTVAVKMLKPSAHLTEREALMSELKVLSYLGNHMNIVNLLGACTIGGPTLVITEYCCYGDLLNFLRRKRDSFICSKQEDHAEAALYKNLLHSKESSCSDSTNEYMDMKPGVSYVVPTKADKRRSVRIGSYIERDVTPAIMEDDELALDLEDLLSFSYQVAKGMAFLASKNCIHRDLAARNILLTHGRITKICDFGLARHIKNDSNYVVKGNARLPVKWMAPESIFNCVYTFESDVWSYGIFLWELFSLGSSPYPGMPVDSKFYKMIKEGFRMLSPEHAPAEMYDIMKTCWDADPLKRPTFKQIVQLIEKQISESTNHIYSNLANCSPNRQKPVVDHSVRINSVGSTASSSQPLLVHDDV
Procedure: as §4

GSK3β(h) = biological target: T3, GSK3β(h) (Homo sapiens, UniProt P49841); assay: KinaseProfiler panel: GSK3β(h); assay type: biochemical; details: residual activity, 5 μM inhibitor, Km ATP
T3 construct: purchased Merck-Millipore (KinaseProfiler panel service)
T3 sequence (P49841 whole entry): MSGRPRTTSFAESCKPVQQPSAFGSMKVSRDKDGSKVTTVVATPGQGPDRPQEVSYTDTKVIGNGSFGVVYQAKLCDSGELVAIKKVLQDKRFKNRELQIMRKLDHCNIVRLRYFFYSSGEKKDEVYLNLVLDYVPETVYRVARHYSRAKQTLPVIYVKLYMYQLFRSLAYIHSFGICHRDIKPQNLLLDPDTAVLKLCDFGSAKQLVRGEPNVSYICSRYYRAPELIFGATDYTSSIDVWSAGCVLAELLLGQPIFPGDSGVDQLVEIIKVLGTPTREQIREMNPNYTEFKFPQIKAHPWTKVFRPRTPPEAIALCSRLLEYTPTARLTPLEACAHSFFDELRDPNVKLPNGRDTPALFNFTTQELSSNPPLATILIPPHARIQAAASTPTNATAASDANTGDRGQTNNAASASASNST
Procedure: as §4

IR(h), activated = biological target: T4, IR(h), activated (Homo sapiens, UniProt P06213); assay: KinaseProfiler panel: IR(h), activated; assay type: biochemical; details: residual activity, 5 μM inhibitor, Km ATP
T4 construct: purchased Merck-Millipore (KinaseProfiler panel service)
Procedure: as §4

MLCK(h) = assay: KinaseProfiler panel: MLCK(h); assay type: biochemical, human; details: residual activity, 5 μM inhibitor, Km ATP
Procedure: as §4

p70S6K(h) = biological target: T5, p70S6K(h) (Homo sapiens, UniProt P23443); assay: KinaseProfiler panel: p70S6K(h); assay type: biochemical; details: residual activity, 5 μM inhibitor, Km ATP
T5 construct: purchased Merck-Millipore (KinaseProfiler panel service)
T5 sequence (P23443 whole entry): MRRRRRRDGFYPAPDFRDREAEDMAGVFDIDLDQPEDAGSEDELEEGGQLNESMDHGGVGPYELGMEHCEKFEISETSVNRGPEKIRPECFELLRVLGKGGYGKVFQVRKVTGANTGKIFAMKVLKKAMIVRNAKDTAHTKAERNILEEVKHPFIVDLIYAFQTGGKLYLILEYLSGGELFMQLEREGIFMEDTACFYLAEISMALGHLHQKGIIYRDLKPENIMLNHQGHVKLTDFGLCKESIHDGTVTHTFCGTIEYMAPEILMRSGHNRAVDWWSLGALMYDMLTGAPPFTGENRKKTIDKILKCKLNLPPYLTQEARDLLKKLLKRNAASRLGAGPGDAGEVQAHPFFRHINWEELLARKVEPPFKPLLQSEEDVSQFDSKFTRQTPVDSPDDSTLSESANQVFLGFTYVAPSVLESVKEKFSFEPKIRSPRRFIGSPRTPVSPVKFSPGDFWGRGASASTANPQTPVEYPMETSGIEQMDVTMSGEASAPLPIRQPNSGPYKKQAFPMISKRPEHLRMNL
Procedure: as §4

PAK6(h) = biological target: T6, PAK6(h) (Homo sapiens, UniProt Q9NQU5); assay: KinaseProfiler panel: PAK6(h); assay type: biochemical; details: residual activity, 5 μM inhibitor, Km ATP
T6 construct: purchased Merck-Millipore (KinaseProfiler panel service)
T6 sequence (Q9NQU5 whole entry): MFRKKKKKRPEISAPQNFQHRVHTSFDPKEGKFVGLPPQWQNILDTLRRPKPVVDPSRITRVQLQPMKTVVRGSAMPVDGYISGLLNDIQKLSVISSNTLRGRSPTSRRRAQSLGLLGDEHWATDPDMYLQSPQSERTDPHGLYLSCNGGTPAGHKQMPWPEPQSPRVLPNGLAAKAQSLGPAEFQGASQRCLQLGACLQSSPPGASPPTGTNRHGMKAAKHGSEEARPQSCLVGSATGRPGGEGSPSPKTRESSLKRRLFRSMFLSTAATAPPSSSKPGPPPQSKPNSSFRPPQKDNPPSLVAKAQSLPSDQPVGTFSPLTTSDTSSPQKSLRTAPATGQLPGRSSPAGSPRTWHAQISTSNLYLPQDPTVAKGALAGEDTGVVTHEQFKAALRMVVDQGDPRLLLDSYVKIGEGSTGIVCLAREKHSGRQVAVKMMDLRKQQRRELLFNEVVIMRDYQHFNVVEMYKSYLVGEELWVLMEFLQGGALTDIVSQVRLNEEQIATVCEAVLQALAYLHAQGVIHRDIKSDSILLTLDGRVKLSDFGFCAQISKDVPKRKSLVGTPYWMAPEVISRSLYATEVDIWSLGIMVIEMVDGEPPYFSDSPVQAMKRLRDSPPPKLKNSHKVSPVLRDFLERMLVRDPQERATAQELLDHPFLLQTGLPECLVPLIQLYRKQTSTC
Procedure: as §4

TAK1(h) = biological target: T7, TAK1(h) (Homo sapiens, UniProt O43318); assay: KinaseProfiler panel: TAK1(h); assay type: biochemical; details: residual activity, 5 μM inhibitor, Km ATP
T7 construct: purchased Merck-Millipore (KinaseProfiler panel service)
T7 sequence (O43318 1-303 limits assumed): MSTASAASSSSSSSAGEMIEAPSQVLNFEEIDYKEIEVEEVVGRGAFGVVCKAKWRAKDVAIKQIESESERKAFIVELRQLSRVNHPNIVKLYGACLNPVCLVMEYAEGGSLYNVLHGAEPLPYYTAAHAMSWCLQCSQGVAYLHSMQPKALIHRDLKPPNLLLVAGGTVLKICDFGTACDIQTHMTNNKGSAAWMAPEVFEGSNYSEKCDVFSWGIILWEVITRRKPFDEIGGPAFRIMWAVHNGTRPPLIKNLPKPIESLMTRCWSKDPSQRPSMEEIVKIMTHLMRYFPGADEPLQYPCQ
Procedure: as §4

B-Raf(h) = B-Raf(h) (Homo sapiens, UniProt P15056); assay: KinaseProfiler panel: B-Raf(h); assay type: biochemical; design: purchased Merck-Millipore (KinaseProfiler panel service); details: residual activity, 5 μM inhibitor, Km ATP
Chain of B-Raf(h) (P15056 whole entry): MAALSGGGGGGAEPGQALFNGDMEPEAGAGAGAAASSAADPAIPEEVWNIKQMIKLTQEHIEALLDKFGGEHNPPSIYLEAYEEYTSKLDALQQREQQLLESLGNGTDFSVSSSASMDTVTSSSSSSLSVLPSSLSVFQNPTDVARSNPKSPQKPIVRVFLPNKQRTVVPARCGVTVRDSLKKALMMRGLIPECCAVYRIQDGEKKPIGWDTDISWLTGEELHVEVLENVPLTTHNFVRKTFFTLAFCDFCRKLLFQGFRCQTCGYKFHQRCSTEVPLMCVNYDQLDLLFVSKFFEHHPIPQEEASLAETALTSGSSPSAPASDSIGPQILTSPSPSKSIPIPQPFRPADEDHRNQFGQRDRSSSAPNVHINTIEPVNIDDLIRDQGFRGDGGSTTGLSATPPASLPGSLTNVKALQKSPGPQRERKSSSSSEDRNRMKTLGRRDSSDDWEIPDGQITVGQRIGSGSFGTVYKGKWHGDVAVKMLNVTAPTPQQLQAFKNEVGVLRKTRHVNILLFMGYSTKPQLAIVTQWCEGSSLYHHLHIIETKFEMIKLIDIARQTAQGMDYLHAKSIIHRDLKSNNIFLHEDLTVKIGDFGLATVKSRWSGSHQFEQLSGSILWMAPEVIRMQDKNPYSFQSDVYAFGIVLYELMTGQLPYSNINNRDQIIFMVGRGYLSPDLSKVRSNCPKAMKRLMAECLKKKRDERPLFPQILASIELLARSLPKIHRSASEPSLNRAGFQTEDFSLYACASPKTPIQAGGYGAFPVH
Procedure: as §4

LIMK1(h) = LIMK1(h) (Homo sapiens, UniProt P53667); assay: KinaseProfiler panel: LIMK1(h); assay type: biochemical; design: purchased Merck-Millipore (KinaseProfiler panel service); details: residual activity, 5 μM inhibitor, Km ATP
Chain of LIMK1(h) (P53667 whole entry): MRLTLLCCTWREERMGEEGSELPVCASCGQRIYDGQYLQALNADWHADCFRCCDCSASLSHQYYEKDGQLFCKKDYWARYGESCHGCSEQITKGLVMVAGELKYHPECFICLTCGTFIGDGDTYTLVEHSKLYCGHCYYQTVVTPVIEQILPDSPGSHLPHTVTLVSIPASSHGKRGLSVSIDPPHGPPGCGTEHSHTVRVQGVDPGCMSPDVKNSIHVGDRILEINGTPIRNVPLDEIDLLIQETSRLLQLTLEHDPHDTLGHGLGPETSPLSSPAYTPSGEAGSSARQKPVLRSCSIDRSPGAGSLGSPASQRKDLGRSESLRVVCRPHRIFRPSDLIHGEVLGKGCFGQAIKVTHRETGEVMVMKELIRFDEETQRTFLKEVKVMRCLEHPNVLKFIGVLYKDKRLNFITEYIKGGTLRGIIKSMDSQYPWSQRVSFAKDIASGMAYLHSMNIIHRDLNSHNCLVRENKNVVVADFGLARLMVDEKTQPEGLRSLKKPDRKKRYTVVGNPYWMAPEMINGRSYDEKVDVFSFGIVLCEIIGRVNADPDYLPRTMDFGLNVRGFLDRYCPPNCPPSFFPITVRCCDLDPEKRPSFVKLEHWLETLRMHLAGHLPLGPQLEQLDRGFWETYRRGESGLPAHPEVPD
Procedure: as §4

pIC50 ([1]; 2 h): > 6.70 | pIC50 (P-MEK/Total MEK [2]; Homo sapiens, 2 h, read-out: IC50 P-MEK/Total MEK): < 6.00
Structure (SMILES): O=S(=O)(Nc1cccc(-c2nc(CCO)sc2-c2ccnc(Nc3ccccc3)n2)c1F)c1c(F)cccc1F [8 (Na)]
Selectivity ratio (P-MEK/Total MEK [2]; IC50 P-MEK/Total MEK divided by IC50 Phospho-Ser3-Cofilin/Total Cofilin): 10

pIC50 (P-MEK/Total MEK [3]; THP-1 cells, 2 h): 6.00 to 6.70
Structure (SMILES): O=S(=O)(Nc1cccc(-c2nc(CCO)sc2-c2ccnc(Nc3ccccc3)n2)c1F)c1c(F)cccc1F [Compound 8, 2,6-difluoro-N-(2-fluoro-3-(2-(2-hydroxyethyl)-5-(2-(phenylamino)pyrimidin-4-yl)thiazol-4-yl)phenyl)benzenesulfonamide]
Selectivity ratio (P-MEK/Total MEK [3]; THP-1 cells, IC50 P-MEK/Total MEK divided by IC50 Phospho-Ser3-Cofilin/Total Cofilin): 80

Structure (SMILES): CNC(=O)Cc1nc(-c2cccc(NS(=O)(=O)c3c(F)cccc3F)c2F)c(-c2ccnc(Nc3ccccc3)n2)s1 [Compound 9, 2-(4-(3-(2,6-difluorophenylsulfonamido)-2-fluorophenyl)-5-(2-(phenylamino)pyrimidin-4-yl)thiazol-2-yl)-N-methylacetamide]
pIC50 ([1]; MOLM-13, 2 h): > 6.70 | pIC50 (P-MEK/Total MEK [3]; THP-1, 2 h): 6.00 to 6.70

Structure (SMILES): CC(C)(C)c1nc(-c2cccc(NS(=O)(=O)c3c(F)cccc3F)c2F)c(-c2ccnc(Nc3ccccc3)n2)s1 [Compound 1, N-(3-(2-(tert-butyl)-5-(2-(phenylamino)pyrimidin-4-yl)thiazol-4-yl)-2-fluorophenyl)-2,6-difluorobenzenesulfonamide]
activity at 5 µM (Aurora-A(h)): ≥ 50% | activity at 5 µM (cKit(D816H)(h)): 10 to 50% | activity at 5 µM (GSK3β(h)): ≥ 50% | activity at 5 µM (IR(h), activated): ≥ 50% | % activity (MLCK(h)): − (50%≤residual activity) | activity at 5 µM (p70S6K(h)): ≥ 50% | activity at 5 µM (PAK6(h)): ≥ 50% | activity at 5 µM (TAK1(h)): ≥ 50% | activity at 5 µM (B-Raf(h)): 3 to 10% | activity at 5 µM (LIMK1(h)): < 3%
